Data from the CheMixHub viscosity set.
± gives the uncertainty stated by the source.

Assay: xn = mol fraction of the nth substance listed

O=C1CCCC1 + COC(=O)c1ccccc1
viscosity [mPa·s], 101 kPa
Conditions	x2 = 0.0744	x2 = 0.1523	x2 = 0.2344	x2 = 0.3214	x2 = 0.418	x2 = 0.5133	x2 = 0.6186	x2 = 0.737	x2 = 0.8638
303.15 K	1.058 ± 0.013	1.115 ± 0.013	1.176 ± 0.014	1.223 ± 0.014	1.284 ± 0.014	1.339 ± 0.014	1.407 ± 0.014	1.481 ± 0.015	1.573 ± 0.015
313.15 K	0.91 ± 0.01	0.946 ± 0.013	0.984 ± 0.013	1.026 ± 0.013	1.071 ± 0.013	1.116 ± 0.013	1.164 ± 0.013	1.218 ± 0.014	1.285 ± 0.014

NC1CCCCC1 + CS(C)=O
303.15 K, 101 kPa
Conditions	viscosity [mPa·s]
x2 = 0.1	1.571 ± 0.017
x2 = 0.1807	1.518 ± 0.016
x2 = 0.2707	1.481 ± 0.015
x2 = 0.3707	1.467 ± 0.014
x2 = 0.4679	1.47 ± 0.013
x2 = 0.5654	1.497 ± 0.012
x2 = 0.6703	1.542 ± 0.012
x2 = 0.7894	1.611 ± 0.011
x2 = 0.8913	1.692 ± 0.011

O=C(CO)[C@@H](O)[C@H](O)[C@H](O)CO + CS(C)=O
viscosity [mPa·s], 101 kPa
Conditions	x1 = 0.04904	x1 = 0.07411	x1 = 0.106	x1 = 0.1269	x1 = 0.151	x1 = 0.1722	x1 = 0.1979	x1 = 0.2243
298.15 K	3.98 ± 0.2	6.037 ± 0.2	10.34 ± 0.21	14.99 ± 0.21	23.48 ± 0.24	35.39 ± 0.3	59.46 ± 0.44	104.7 ± 1.4
308.15 K	3.096 ± 0.2	4.529 ± 0.2	7.33 ± 0.2	10.21 ± 0.21	15.13 ± 0.22	21.64 ± 0.24	34.14 ± 0.3	55.88 ± 0.42
318.15 K	2.48 ± 0.2	3.507 ± 0.2	5.442 ± 0.2	7.283 ± 0.2	10.35 ± 0.21	14.17 ± 0.22	21.19 ± 0.24	32.62 ± 0.3

CC(O)CO (stereo not drawn) + OCCO
viscosity [mPa·s], 101 kPa
Conditions	x2 = 0.1212	x2 = 0.2346	x2 = 0.3459	x2 = 0.4339	x2 = 0.5501	x2 = 0.631	x2 = 0.7481	x2 = 0.8299	x2 = 0.9064
298.15 K	41.61 ± 0.24	38.96 ± 0.25	36.05 ± 0.25	33.67 ± 0.25	30.55 ± 0.25	28.37 ± 0.25	25.1 ± 0.24	22.65 ± 0.23	20.25 ± 0.22
303.15 K	32.39 ± 0.19	30.43 ± 0.2	28.19 ± 0.2	26.35 ± 0.2	23.95 ± 0.2	22.28 ± 0.2	19.75 ± 0.19	17.84 ± 0.18	15.99 ± 0.17
308.15 K	24.28 ± 0.15	22.97 ± 0.15	21.42 ± 0.15	20.15 ± 0.15	18.48 ± 0.16	17.31 ± 0.15	15.55 ± 0.15	14.2 ± 0.15	12.9 ± 0.14

O=C1CCCC1 + CCCCO
303.15 K, 101 kPa
Conditions	viscosity [mPa·s]
x1 = 0.101	1.725 ± 0.013
x1 = 0.2614	1.339 ± 0.011
x1 = 0.4183	1.143 ± 0.009
x1 = 0.5813	1.026 ± 0.009
x1 = 0.7417	0.974 ± 0.008
x1 = 0.899	0.959 ± 0.009

CC(O)CO (stereo not drawn) + CCO
Conditions	viscosity [mPa·s]
298.15 K, 101 kPa, x1 = 0.1	1.55 ± 0.041
298.15 K, 101 kPa, x1 = 0.2	2.215 ± 0.06
298.15 K, 101 kPa, x1 = 0.3	3.185 ± 0.086
298.15 K, 101 kPa, x1 = 0.4	4.612 ± 0.13
298.15 K, 101 kPa, x1 = 0.5	6.698 ± 0.18
298.15 K, 101 kPa, x1 = 0.6	9.706 ± 0.27
298.15 K, 101 kPa, x1 = 0.7	14.06 ± 0.4
298.15 K, 101 kPa, x1 = 0.8	20.27 ± 0.59
298.15 K, 101 kPa, x1 = 0.9	30.07 ± 0.89
303 K, 100 kPa, x1 = 0.6	6.734 ± 0.054
308 K, 100 kPa, x1 = 0.6	5.729 ± 0.046
308.15 K, 101 kPa, x1 = 0.1	1.24 ± 0.033
308.15 K, 101 kPa, x1 = 0.2	1.719 ± 0.046
308.15 K, 101 kPa, x1 = 0.3	2.409 ± 0.064
308.15 K, 101 kPa, x1 = 0.4	3.377 ± 0.09
308.15 K, 101 kPa, x1 = 0.5	4.699 ± 0.13
308.15 K, 101 kPa, x1 = 0.6	6.604 ± 0.18
308.15 K, 101 kPa, x1 = 0.7	9.261 ± 0.25
308.15 K, 101 kPa, x1 = 0.8	12.96 ± 0.35
308.15 K, 101 kPa, x1 = 0.9	18.15 ± 0.5
313 K, 100 kPa, x1 = 0.6	5.069 ± 0.039
318 K, 100 kPa, x1 = 0.6	4.427 ± 0.036
318.15 K, 101 kPa, x1 = 0.1	0.9282 ± 0.025
318.15 K, 101 kPa, x1 = 0.2	1.317 ± 0.035
318.15 K, 101 kPa, x1 = 0.3	1.854 ± 0.049
318.15 K, 101 kPa, x1 = 0.4	2.576 ± 0.069
318.15 K, 101 kPa, x1 = 0.5	3.527 ± 0.094
318.15 K, 101 kPa, x1 = 0.6	4.797 ± 0.13
318.15 K, 101 kPa, x1 = 0.7	6.46 ± 0.18
318.15 K, 101 kPa, x1 = 0.8	8.621 ± 0.24
318.15 K, 101 kPa, x1 = 0.9	11.43 ± 0.32

CC(O)CO (stereo not drawn) + CC#N
viscosity [mPa·s], 100 kPa
Conditions	x2 = 0.1127	x2 = 0.2	x2 = 0.3055	x2 = 0.4021	x2 = 0.5008	x2 = 0.5989	x2 = 0.6987	x2 = 0.7958	x2 = 0.8961
293.15 K	31.4 ± 6.3	20.3 ± 4.1	12.2 ± 2.4	7.53 ± 1.5	4.71 ± 0.94	2.9 ± 0.58	1.82 ± 0.36	1.1 ± 0.22	0.66 ± 0.13
298.15 K	25.4 ± 5.1	16.9 ± 3.4	10.3 ± 2.1	6.21 ± 1.2	4.02 ± 0.81	2.42 ± 0.49	1.57 ± 0.31	0.97 ± 0.19	0.59 ± 0.12
303.15 K	20.8 ± 4.2	13.8 ± 2.8	8.68 ± 1.7	5.48 ± 1.1	3.52 ± 0.71	2.25 ± 0.45	1.4 ± 0.28	0.87 ± 0.17	0.53 ± 0.11

O=C[O-].OCC[NH2+]CCO + O
100 kPa
Conditions	viscosity [mPa·s]
293.15 K, x2 = 0.8484	8.19 ± 1.7
303.15 K, x2 = 0.4068	75.66 ± 15
303.15 K, x2 = 0.4845	65.08 ± 13
303.15 K, x2 = 0.7816	11.05 ± 2.2
303.15 K, x2 = 0.8484	5.927 ± 1.2
313.15 K, x2 = 0.2013	99.28 ± 20
313.15 K, x2 = 0.2622	77.5 ± 16
313.15 K, x2 = 0.7816	7.98 ± 1.6
323.15 K, x2 = 0.2013	61.45 ± 12
323.15 K, x2 = 0.7816	6.008 ± 1.2
323.15 K, x2 = 0.9708	0.9306 ± 0.19
